Results published in patent US8906644B2, “Method for culture of hepatocytes” (The University of Tokyo, priority 2009, dated 2014).

Target: T1, drug transporter (MRP2) (Rattus norvegicus, UniProt Q63120)
T1 construct: endogenous in cells; host or cells: primary hepatocytes in collagen gel sandwich culture on a PDMS membrane device, with a polystyrene device for comparison
Assay: Measurement of MRP2 activity with CDCF (Bile Excretion Index) in collagen gel sandwiched hepatocytes
Assay type: in vitro ADME
Settings: Day 4 of culture, 5 μM CDCF, 5 minutes
Procedure: Using the collagen gel sandwiched hepatocytes that were cultured on the PDMS membrane culturing device prepared in Example 1 and forming bile canaliculi, the activity of a drug transporter (MRP2) was measured by incorporation of 5-(and-6)-carboxy-2′,7′-dichlorofluorescein (CDCF) as follows according to a Non-patent Document (Liu X et al., Am J Physiol, 1999, vol. 277, pp. 12-21). Further, hepatocytes cultured in a conventional polystyrene culturing device were used for comparison.
Ca/Mg(+) HBSS was prepared before use by mixing 50 mL of HBSS (Invitrogen, 14175-079), 500 μL of 14 g/L CaCl2 and 500 μL of 10 g/L MgCl2/6H2O together. In terms of the CDCF solution, a 5 μM CDCF solution was prepared before use by using 1 mM CDCF (in dimethyl sulfoxide: Molecular Probes, C-369) and Ca/Mg(+) HBSS, and the prepared solution was incubated in a water bath at 37° C. […]
Two hepatocyte cultures were prepared 4 days after the beginning of the culture (3 days after the deposition of the gel). […] A 100-μL aliquot was collected from each supernatant and subjected to measurement with a fluorescence microplate reader with excitation at 492 nm and fluorescence at 530 nm to quantify the amount of CDCF. […] The Bile Excretion Index (BEI) was calculated according to the following equation based on the fluorescent brightness per protein amount (Accumulation).

T1 sequence (Q63120 whole entry): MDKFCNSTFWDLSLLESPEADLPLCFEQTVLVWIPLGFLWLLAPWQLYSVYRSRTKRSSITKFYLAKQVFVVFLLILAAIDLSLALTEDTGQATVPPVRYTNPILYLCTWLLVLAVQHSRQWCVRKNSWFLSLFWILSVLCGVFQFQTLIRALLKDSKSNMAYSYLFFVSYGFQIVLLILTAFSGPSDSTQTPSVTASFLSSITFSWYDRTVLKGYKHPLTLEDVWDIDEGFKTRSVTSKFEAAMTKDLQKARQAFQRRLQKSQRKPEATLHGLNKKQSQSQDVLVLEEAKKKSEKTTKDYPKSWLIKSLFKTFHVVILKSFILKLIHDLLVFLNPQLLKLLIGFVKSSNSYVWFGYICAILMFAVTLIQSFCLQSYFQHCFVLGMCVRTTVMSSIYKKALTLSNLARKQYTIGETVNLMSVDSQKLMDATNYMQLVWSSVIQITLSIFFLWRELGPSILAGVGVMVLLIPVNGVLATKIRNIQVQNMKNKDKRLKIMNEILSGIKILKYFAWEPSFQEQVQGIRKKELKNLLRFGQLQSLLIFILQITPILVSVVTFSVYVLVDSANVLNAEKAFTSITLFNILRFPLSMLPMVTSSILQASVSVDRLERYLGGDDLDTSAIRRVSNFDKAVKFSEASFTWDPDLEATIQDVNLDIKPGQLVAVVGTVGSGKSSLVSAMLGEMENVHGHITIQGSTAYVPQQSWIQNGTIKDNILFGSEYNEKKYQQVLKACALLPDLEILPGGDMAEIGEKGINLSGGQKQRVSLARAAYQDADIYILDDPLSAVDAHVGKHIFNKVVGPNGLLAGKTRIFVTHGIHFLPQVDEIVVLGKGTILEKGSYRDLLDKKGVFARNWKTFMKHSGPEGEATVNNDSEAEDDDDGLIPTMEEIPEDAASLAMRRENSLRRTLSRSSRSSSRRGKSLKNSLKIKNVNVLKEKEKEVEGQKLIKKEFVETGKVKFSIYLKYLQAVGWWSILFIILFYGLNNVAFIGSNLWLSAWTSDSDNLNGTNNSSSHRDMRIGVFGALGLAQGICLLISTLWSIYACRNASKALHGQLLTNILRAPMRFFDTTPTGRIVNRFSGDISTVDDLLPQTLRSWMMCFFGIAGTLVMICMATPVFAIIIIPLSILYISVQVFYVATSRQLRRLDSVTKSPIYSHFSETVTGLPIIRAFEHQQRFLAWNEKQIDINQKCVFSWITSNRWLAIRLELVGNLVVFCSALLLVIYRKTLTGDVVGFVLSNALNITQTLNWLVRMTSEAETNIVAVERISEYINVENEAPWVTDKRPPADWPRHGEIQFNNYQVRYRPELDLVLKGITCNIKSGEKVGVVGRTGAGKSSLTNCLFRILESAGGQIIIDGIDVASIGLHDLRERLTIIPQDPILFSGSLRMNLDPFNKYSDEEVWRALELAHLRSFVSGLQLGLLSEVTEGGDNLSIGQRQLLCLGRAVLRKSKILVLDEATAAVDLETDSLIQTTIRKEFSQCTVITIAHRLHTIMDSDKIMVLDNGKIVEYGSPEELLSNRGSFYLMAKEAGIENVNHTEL

- Bile Excretion Index (BEI) (collagen gel sandwich on conventional polystyrene (PS) substrate): about 20%
- Bile Excretion Index (BEI) (collagen gel sandwich on gas-permeable PDMS membrane culturing device): about 40%
Substance: 5-(and-6)-carboxy-2′,7′-dichlorofluorescein [CDCF]
